Reference: US20250352532A1, “REDUCED N[…] IN PHARMACEUTICAL COMPOSITIONS COMPRISING METHYLPHENIDATE” (MEDICE Arzneimittel Pütter GmbH & Co. KG, priority 2024, published 2025)

Assay: N-nitrosomethylphenidate content of methylphenidate compositions by UHPLC-MS/MS
Format: physicochemical
Details: verbal assessment of Table 2; antioxidant/stabilizer in methylphenidate composition
Procedure: To determine the effect of various antioxidants or stabilizers on the prevention of nitrosamine formation in compositions containing methylphenidate, different pharmaceutical compositions were prepared as described in Example 1 above, except that antioxidants/stabilizers other than ascorbyl palmitate were used. However, for better comparability, the molar ratio of methylphenidate: antioxidant/stabilizer was kept constant at 1:3 in all compositions (except for the composition with no antioxidant/stabilizer). Accordingly, the compositions of Example 1 and Comparative Examples 2 to 7 differ only in the type of antioxidant/stabilizer and are otherwise composed exactly as shown in Table 1 above for Example 1. The content of N-nitrosomethylphenidate in the compositions was determined by UHPLC-MS/MS. Accordingly, the term “nitrosamine” in the present context refers to “N-nitrosomethylphenidate”. For sample preparation, the compositions were ground and the resulting powders were extracted with methanol. The following measurement conditions were used for the N-nitrosomethylphenidate determination: • LC column: Waters BEH Shield RP18 (100x2.1 mm, 1.7 um) • Flow rate: 0.4 mL/min • Column temperature: 50° C. . . . • Mobile phase: Phase A: Water with 0.1% by volume formic acid • Phase B: Acetonitrile • Gradient conditions: […]

CCCCCCCCCCCCCCCC(=O)OC[C@H](O)[C@H]1OC(=O)C(O)=C1O [ascorbyl palmitate]
effectiveness in reducing nitrosamine formation in compositions with methylphenidate: by far the most effective
